# In ChEMBL document CHEMBL1148145, “2,3,4-Trimethyl-5,7-dihydroxy-2,3-dihydrobenzofuran, a novel antioxidant, from Penicillium citrinum F5” (J Nat Prod, 2002):
# Tested on: Radical scavenging activity
# Assay: Antioxidant activity assessed as DPPH radical scavenging activity after 30 mins by spectrophotometry
# Format: functional
row,SMILES,IC50 [µM]
1,Cc1c(O)cc(O)c2c1[C@@H](C)[C@H](C)O2,10.4
2,O=C1O[C@H]([C@@H](O)CO)C(O)=C1O [ASCORBIC ACID],8.92
3,O=C(O)c1cc(O)ccc1O [GENTISIC ACID],4.26

# Second part, the molecule after the results:
row,IC50 [µM],SMILES
1,36.1,CC(C)(Sc1cc(C(C)(C)C)c(O)c(C(C)(C)C)c1)Sc1cc(C(C)(C)C)c(O)c(C(C)(C)C)c1 [PROBUCOL]
2,8.77,Cc1c(C)c2c(c(C)c1O)CCC(C)(C(=O)O)O2 (stereo not given) [TROLOX]
